Here are results for one molecule from publication PMC2621068 (Neuropeptides, 2008).

One assay relates to female Kuming mice. To be noted: mouse, in vivo.
In assay [1] the test system is Kuming mice. The assay is classed as in vivo, mouse. As to conditions: n = 8.
Assay [2] relates to Kuming mice. As to conditions: mouse, in vivo.

Regarding `CC(C(O)c1ccc(O)cc1)N1CCC(Cc2ccccc2)CC1` (centres unmarked) [ifenprodil, reference compound], in the assay with female Kuming mice, the “Paw withdrawal latency after administration, 30 min” value is given as 11.1 ± 3.7 s; the “Paw withdrawal latency after administration, 90 min” value was 11.1 ± 4.6 s; the “Paw withdrawal latency after administration, 150 min” value was found to be 11.2 ± 3.0 s; the “Paw withdrawal latency after administration, 240 min” value worked out at 12.8 ± 3.0 s. Besides, in the assay with female Kuming mice, the “Paw withdrawal latency before administration” value amounted to 10.8 ± 2.4 s and the “antinociception in the hot-plate test (in words)” value is “had no effect”. Moreover, in the assay on Kuming mice [1], the “first phase response of the formalin test (in words)” value is given as “without effect in both phases” and the “second phase response of the formalin test (in words)” value is “without effect in both phases”. In addition, in the assay with Kuming mice [2], the “Increase in paw width” value is listed as 1.10 ± 0.05 mm; the “Injected paw width, after formalin injection” value is given as 2.70 ± 0.04 mm; the “Injected paw width, before formalin injection” value is on record as 1.59 ± 0.04 mm.
